Here are results for 3 compounds from patent US10653138B2, “Composition for attracting bed bugs” (London School of Hygiene & Tropical Medicine, priority 2015, dated 2020).

Experiment [1] relates to bed bugs. Kind of experiment: Behavioural bioassay, dose responses of individual chemicals (Example 8). The class given is in vivo, Cimex lectularius. To be noted: for dose response: 0.008× to 8000×; for doses on which further synthetic blends should focus: × relative to 8% natural standard (8×=1× standard). The protocol: Methods: The behavioural bioassay was as described by Weeks et al. 2011 and recorded using EthoVision and the methodology described by Weeks et al. 2013. For each chemical, (E)-2-octenal, (RS)-1-octen-3-ol and nonanal, seven doses were tested from 0.008× to 8000×, along with three controls. Each replicate was completed as a block of 10 treatments including: We are referring here to either 0.001×, 0.01×, 0.1×, 1×, 10×, 100× or 1000× the dose of (E)-2-octenal found naturally in the aggregation pheromone. For instance, an “8% solution” refers to an 8% dose of volatile extract (with the various different ratios of individual component). In each block the order of the treatments and the position of the odour pot were randomized. 10 blocks were completed for each chemical (n=10).

Experiment [2] concerns bed bugs. Kind of experiment: Behavioural bioassay, refined synthetic blends (Example 9). The class given is in vivo, Cimex lectularius. From the text: The behavioural bioassay was as described by Weeks et al. 2011 and recorded using EthoVision and the methodology described by Weeks et al. 2013. Each replicate was completed as a block of 10 treatments including: • 1. Bed bug-exposed paper (positive control) • 2. Ether (negative control) • 3. Nonanal 80× • 4. E-2-octenal 800× • 5. Nonanal 80× and E-2-octenal 80× (80-80) • 6. Nonanal 80× and E-2-octenal 800× (80-800) • 7. Nonanal 80× and E-2-octenal 8000× (80-8000) • 8. Nonanal 8× and E-2-octenal 800× (8-800) • 9. Nonanal 8× and E-2-octenal 8000× (8-8000) • 10. Nonanal 80×, E-2-octenal 80× and 1-octen-3-ol 80× (80-80-80)
We are referring here to either 1×, 10×, 100× or 1000× the dose of Nonanal or (E)-2-octenal found naturally in the aggregation pheromone. For instance, an “8% solution” refers to an 8% dose of volatile extract (with the various different ratios of individual component).
Therefore, 8× means that it is 1 of standard volatiles, 8×=1× standard, 80×=10× standard and 800×=100× standard. 8000×=1000× standard.
In each block the order of the treatments and the position of the odour pot were randomized. 18 blocks were completed.

In experiment [3] the test system is bed bugs. To be noted: volatile components of aggregation pheromone; cited from earlier work.
A further experiment has as its system bed bug antennae. Kind of experiment: Coupled gas chromatography-electroantennography (GC-EAG) of volatile extract from bed bug-exposed paper. Details: species or system Cimex lectularius. To be noted: for Electrophysiology Auto method: bullet = marked under the Auto method; for Responses Total: males plus females, 20 insects tested; for Responses Females: number of females giving an EAG response to the peak; for Responses Females / Responses Males: volatile extract 1 μL; for Responses Males: number of males giving an EAG response to the peak; for electroantennogram (EAG) response: result in words; for Visual inspection (no of responses) >5 / Visual inspection (no of responses) >10 / Visual inspection (no of responses) >15: threshold of individuals responding; for Visual inspection (no of responses) Response: total EAG responses, Table 8. An excerpt: Experimental insects, unless otherwise stated, were mated males and females of C. lectularius that had been fed 7 to 14 days previously on heparinised sheep blood. The electrodes used to make recordings were Ag/AgCl wires (diameter 0.37 mm) inserted into glass pipettes, made from borosilicate glass capillaries (outer diameter 2.0 mm; inner diameter 1.16 mm). The glass pipettes were filled with Ringers solution (7.55 g NaCl, 0.64 g KCl, 0.22 g CaCl2, 1.73 g MgCl2 g, 0.86 g NaHCO3 and 0.61 g Na3PO4 L^−1 water). The bed bug was then chilled on ice for one minute before dissection. Preparations were held in a continuous, humidified, charcoal filtered air flow ([…]) coming from a glass tube, which was positioned 5 mm from the antennal preparation. Once the antennal preparation and EAG equipment were in position the microscope light was switched off.
The GC used was a HP-680N, containing a HP-1 column (30 m×0.32 mm; film thickness, 0.52 μm) with a COC injector, hydrogen carrier gas and a FID. The oven temperature was maintained at 40° C. for two min and then programmed at 5° C. min^−1 to 100° C. and then at 10° C. […] to 250° C. The end of the column was inserted into the centre of the main air flow so that the eluent went over the antennal preparation. […] Amplification of the signals was set at ×10,000. Signals were analysed using the computer-based software package, EAD 2000 (Syntech®, The Netherlands). The volatile extract (1 μL) from an air entrainment of bed bug-exposed papers (see Example 1) was injected onto the column. A solution of n-alkanes (C7-C25, 1 μL of 100 ng μL^−1) in hexane was also analysed to calculate the retention indices (RI) of any EAG-active peaks for comparison with GC and coupled GC-MS traces (Equation 1).
Electroantennographic (EAG) responses from the coupled gas chromatography-electroantennographic (GC-EAG) analysis of the volatile extract collected using air entrainment were determined by visual appearance. Coupled GC-EAG traces were examined visually on a light box to identify EAG responses and match them to peaks on the GC traces. A combination of characteristics including the amplitude and shape of the deflection from the baseline were used to identify EAG responses. For example, an EAG response is usually of greater amplitude than the background noise and it has a characteristic negative deflection followed by a quick positive deflection resulting in a short sharp response often of similar shape and position as the corresponding peak on the GC trace. Responses were matched between males and females separately onto master traces for each sex. The EAG-active peaks were labelled from 1 to 21. Male and female master traces were then overlaid to identify where consistent responses occurred in both sexes. Five or more individuals responding at the same retention time on the GC trace was considered to be a consistent EAG response and the corresponding peak on the GC trace was considered to be EAG-active. Three thresholds were used: greater than 5, greater than 10 or greater than 15 individuals responding to the same GC peak or at the same retention time. The traces were then subjected to manual or automated statistical analysis.

Take `CCCCC/C=C/C=O` (single isomer, unassigned) [(E)-2-octenal]: in the experiment with bed bugs [1], the dose response entry is recorded as “clear dose response was observed” and the “doses on which further synthetic blends should focus” value was 800-8000 ×. Moreover, the “time spent over the odour pot compared with blends” value in the experiment on bed bugs [2] ((E)-2-octenal 800 treatment) is “significantly lower in time spent over the odour pot than 80-800 and 8-800”. The “attraction of bed bugs to safe shelters” value in the experiment on bed bugs [3] is given as “attract bed bugs to safe shelters”. In the experiment with bed bug antennae, the “Electrophysiology Auto method” value is recorded as “•”, the “Responses Total” value is listed as 16, the “Responses Females” value is 8 and the “Responses Males” value stood at 8. In the experiment with bed bug antennae, the “electroantennogram (EAG) response” value is listed as “EAG-active”, the “Visual inspection (no of responses) >5” value is reported as “• (>5)”, the “Visual inspection (no of responses) >10” value is on record as “• (>10)” and the “Visual inspection (no of responses) >15” value is on record as “• (>15)”. The “Visual inspection (no of responses) Response” value in the experiment on bed bug antennae came out at 16.
As to `CCCCCCCCC=O` [Nonanal, nonanal], in the experiment with bed bugs [1], the dose response entry is listed as “clear dose response was observed” and the “doses on which further synthetic blends should focus” value is listed as 8-80 ×. Also, in the experiment on bed bugs [2] (nonanal 80), the “zone duration compared to zero” value is reported as “significantly greater in time spent above the odour pot in the odour zone”. Further, in the experiment on bed bug antennae, the “Electrophysiology Auto method” value is listed as “•”, the “Responses Total” value came out at 17, the “Responses Females” value is 9 and the “Responses Males” value is given as 8. Further, in the experiment on bed bug antennae, the “electroantennogram (EAG) response” value is “EAG-active”, the “Visual inspection (no of responses) >5” value is recorded as “• (>5)”, the “Visual inspection (no of responses) >10” value is recorded as “• (>10)” and the “Visual inspection (no of responses) >15” value is listed as “• (>15)”. For the same compound, in the experiment on bed bug antennae, the “Visual inspection (no of responses) Response” value is 17.
As for `C=CC(O)CCCCC` (racemic) [(RS)-1-Octen-3-ol, (RS)-1-octen-3-ol], the “time spent above the odour pot compared to zero” value with bed bugs [1] (all doses 0.008× to 8000×) is “none of the (RS)-1-octen-3-ol doses resulted in significantly more”. Further, in the experiment on bed bug antennae, the “Responses Total” value was determined as 11, the “Responses Females” value was 7, the “Responses Males” value came out at 4 and the “electroantennogram (EAG) response” value was “EAG-active”. In the experiment with bed bug antennae, the “Visual inspection (no of responses) >5” value is “• (>5)”, the “Visual inspection (no of responses) >10” value is “• (>10)” and the “Visual inspection (no of responses) Response” value is given as 11.
